Measured values reported in patent publication US7612211B2, “Benzimidazole TRPV1 inhibitors” (Janssen Pharmaceutica N.V., priority 2006, dated 2009).

Target: T1, hTRPV1 (Homo sapiens, UniProt Q8NER1)
T1 construct: expressed in transfected cells; host or cells: HEK293
Assay: Human TRPV1 (hTRPV1) functional assay, FLIPR intracellular Ca2+, capsaicin challenge
Type: cell-based
Conditions: HEK293 cells expressing hTRPV1, capsaicin 0.030 μM challenge; for inhibition at 0.5 µM: test concentration of 0.5 μm, read-out: percent inhibition (symbol a); for IC50: derived from a variety of test concentrations, read-out: IC50 value (symbol c)
Description: The functional activity of the test compounds was determined by measuring changes in intracellular calcium concentration using a Ca^++-sensitive fluorescent dye and FLIPR™ technology. Increases in Ca^++ concentration were readily detected upon challenge with capsaicin.
HEK293 cells expressing hTRPV1 were grown on poly-D-lysine coated 384 well black-walled plates (BD 354663) and 1 day later loaded with Calcium 3 Dye for 35 min at 37° C., 5% CO2 and then for 25 min at room temperature, and subsequently tested for agonist-induced increases in intracellular Ca^2+ levels using FLIPR™ technology. Cells were challenged with test compounds (at varying concentrations) and intracellular Ca^2+ was measured for 5 min prior to the addition of capsaicin to all wells to achieve a final concentration of 0.030 μM eliciting ˜80% maximal response.
EC50 or IC50 values were determined from concentration-response studies, which were generated using the average of quadruplicate wells for each data point. The symbol “a” represents percent inhibition obtained at a test concentration of 0.5 μm; the symbol “b” represents percent inhibition obtained at a test concentration of 0.2 μm; the symbol “c” represents an IC50 value (nM) derived from a variety of test concentrations. The term “NA” means that the result is not applicable for a particular compound.

T1 sequence (Q8NER1 whole entry): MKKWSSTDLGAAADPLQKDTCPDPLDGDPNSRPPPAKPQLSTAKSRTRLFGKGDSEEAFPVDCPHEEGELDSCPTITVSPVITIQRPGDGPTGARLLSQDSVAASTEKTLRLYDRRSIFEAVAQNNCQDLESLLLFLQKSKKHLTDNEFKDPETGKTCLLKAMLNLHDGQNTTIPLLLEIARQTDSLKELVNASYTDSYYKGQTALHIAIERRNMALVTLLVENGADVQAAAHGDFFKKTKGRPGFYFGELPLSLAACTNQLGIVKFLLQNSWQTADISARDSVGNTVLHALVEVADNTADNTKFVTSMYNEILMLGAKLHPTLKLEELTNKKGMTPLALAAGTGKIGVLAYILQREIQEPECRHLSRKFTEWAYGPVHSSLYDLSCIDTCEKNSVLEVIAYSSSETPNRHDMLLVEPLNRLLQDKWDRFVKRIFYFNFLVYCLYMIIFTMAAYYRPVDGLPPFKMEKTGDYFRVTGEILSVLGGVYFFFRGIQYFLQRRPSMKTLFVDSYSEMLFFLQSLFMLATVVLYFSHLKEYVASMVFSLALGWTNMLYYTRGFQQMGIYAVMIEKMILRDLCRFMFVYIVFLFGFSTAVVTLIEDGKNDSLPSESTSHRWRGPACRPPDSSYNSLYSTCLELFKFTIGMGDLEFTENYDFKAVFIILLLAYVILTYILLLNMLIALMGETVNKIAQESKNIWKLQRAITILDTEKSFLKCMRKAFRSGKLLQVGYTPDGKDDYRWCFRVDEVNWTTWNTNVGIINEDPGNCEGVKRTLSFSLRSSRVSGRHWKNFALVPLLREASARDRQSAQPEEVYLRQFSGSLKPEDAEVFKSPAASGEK

Row | SMILES | inhibition at 0.5 µM [%] | IC50 [nM] | inhibition at 0.2 µM (test concentration of 0.2 μm, read-out: percent inhibition (symbol b)) [%]
1 | NS(=O)(=O)c1ccccc1-c1ccc2[nH]c(COc3cccc(F)c3)nc2c1 [Cpd 4, 2-[2-(3-fluoro-phenoxymethyl)-1H-benzoimidazol-5-yl]-benzenesulfonamide] | 67 |  | 
2 | NS(=O)(=O)c1ccccc1-c1ccc2[nH]c(COc3ccc(F)cc3)nc2c1 [Cpd 5, 2-[2-(4-fluoro-phenoxymethyl)-1H-benzoimidazol-5-yl]-benzenesulfonamide] | 71 |  | 
3 | NS(=O)(=O)c1ccccc1-c1ccc2[nH]c(COc3ccc(Br)cc3)nc2c1 [Cpd 8, 2-[2-(4-bromo-phenoxymethyl)-1H-benzoimidazol-5-yl]-benzenesulfonamide] |  | 6.6 | 
4 | NS(=O)(=O)c1ccccc1-c1ccc2[nH]c(COc3ccc(F)cc3F)nc2c1 [Cpd 9, 2-[2-(2,4-difluoro-phenoxymethyl)-1H-benzoimidazol-5-yl]-benzenesulfonamide] |  | 110 | 
5 | NS(=O)(=O)c1ccccc1-c1ccc2[nH]c(COc3ccc(F)c(F)c3)nc2c1 [Cpd 10, 2-[2-(3,4-difluoro-phenoxymethyl)-1H-benzoimidazol-5-yl]-benzenesulfonamide] |  | 120 | 
6 | NS(=O)(=O)c1ccccc1-c1ccc2[nH]c(COc3ccc(F)c(C(F)(F)F)c3)nc2c1 [Cpd 12, 2-[2-(4-fluoro-3-trifluoromethyl-phenoxymethyl)-1H-benzoimidazol-5-yl]-benzenesulfonamide] |  | 18 | 
7 | NS(=O)(=O)c1ccccc1-c1ccc2[nH]c(COc3cccc(C(F)(F)F)c3)nc2c1 [Cpd 13, 2-[2-(3-trifluoromethyl-phenoxymethyl)-1H-benzoimidazol-5-yl]-benzenesulfonamide] |  | 61 | 
8 | NS(=O)(=O)c1ccccc1-c1ccc2[nH]c(COc3ccc(F)c(F)c3F)nc2c1 [Cpd 14, 2-[2-(2,3,4-trifluoro-phenoxymethyl)-1H-benzoimidazol-5-yl]-benzenesulfonamide] |  | 110 | 
9 | NS(=O)(=O)c1ccccc1-c1ccc2[nH]c(COc3cccc(OC(F)(F)F)c3)nc2c1 [Cpd 15, 2-[2-(3-trifluoromethoxy-phenoxymethyl)-1H-benzoimidazol-5-yl]-benzenesulfonamide] |  | 25 | 
10 | CNS(=O)(=O)c1ccccc1-c1ccc2[nH]c(COc3ccc(Cl)cc3)nc2c1 [Cpd 18, 2-[2-(4-chloro-phenoxymethyl)-1H-benzoimidazol-5-yl]-N-methyl-benzenesulfonamide] | 97 | 71 | 
11 | CNS(=O)(=O)c1ccccc1-c1ccc2[nH]c(COc3ccc(S(=O)(=O)C(F)(F)F)cc3)nc2c1 [Cpd 20, N-methyl-2-[2-(4-trifluoromethanesulfonyl-phenoxymethyl)-1H-benzoimidazol-5-yl]-benzenesulfonamide] | 100 | 20 | 
12 | CC(C)(O)c1ccccc1-c1ccc2[nH]c(COc3ccc(OC(F)(F)F)cc3)nc2c1 [Cpd 22, 2-{2-[2-(4-trifluoromethoxy-phenoxymethyl)-1H-benzoimidazol-5-yl]-phenyl}-propan-2-ol] | 100 | 4 | 
13 | CC(C)(O)c1ccccc1-c1ccc2[nH]c(COc3ccc(Cl)cc3)nc2c1 [Cpd 23, 2-{2-[2-(4-chloro-phenoxymethyl)-1H-benzoimidazol-5-yl]-phenyl}-propan-2-ol] | 100 | 19 | 
14 | CC(C)(O)c1ccccc1-c1ccc2[nH]c(COc3cccc(C(F)(F)F)c3)nc2c1 [Cpd 24, 2-{2-[2-(3-trifluoromethyl-phenoxymethyl)-1H-benzoimidazol-5-yl]-phenyl}-propan-2-ol] | 92 | 156 | 
15 | CC(C)(O)c1ccccc1-c1ccc2[nH]c(COc3ccc(S(C)(=O)=O)cc3)nc2c1 [Cpd 25, 2-{2-[2-(4-methanesulfonyl-phenoxymethyl)-1H-benzoimidazol-5-yl]-phenyl}-propan-2-ol] | 100 | 13 | 
16 | NS(=O)(=O)c1ccccc1-c1ccc2[nH]c(COc3ccc(Cl)c(Cl)c3)nc2c1 [Cpd 29, 2-[2-(3,4-dichloro-phenoxymethyl)-1H-benzoimidazol-5-yl]-benzenesulfonamide] | 98 | 22 | 
17 | NS(=O)(=O)c1ccccc1-c1ccc2[nH]c(COc3cc(C(F)(F)F)cc(C(F)(F)F)c3)nc2c1 [Cpd 31, 2-[2-(3,5-bis-trifluoromethyl-phenoxymethyl)-1H-benzoimidazol-5-yl]-benzenesulfonamide] | 97 | 10.6 | 
18 | CC(=O)c1ccc(OCc2nc3cc(-c4ccccc4S(N)(=O)=O)ccc3[nH]2)cc1 [Cpd 35, 2-[2-(4-acetyl-phenoxymethyl)-1H-benzoimidazol-5-yl]-benzenesulfonamide] | 97 | 16 | 
19 | NS(=O)(=O)c1ccccc1-c1ccc2[nH]c(COc3ccc4ccccc4c3)nc2c1 [Cpd 36, 2-[2-(naphthalen-2-yloxymethyl)-1H-benzoimidazol-5-yl]-benzenesulfonamide] | 98 | 32 | 
20 | NS(=O)(=O)c1ccccc1-c1ccc2[nH]c(COc3ccc4ncccc4c3)nc2c1 [Cpd 37, 2-[2-(quinolin-6-yloxymethyl)-1H-benzoimidazol-5-yl]-benzenesulfonamide] | 50 |  | 
21 | NS(=O)(=O)c1ccccc1-c1ccc2[nH]c(COc3ccncc3)nc2c1 [Cpd 38, 2-[2-(pyridin-4-yloxymethyl)-1H-benzoimidazol-5-yl]-benzenesulfonamide] | 13 |  | 
22 | Cn1c(COc2ccc(C(F)(F)F)cc2)nc2cc(-c3ccccc3S(N)(=O)=O)ccc21 [Cpd 40, 2-[1-methyl-2-(4-trifluoromethyl-phenoxymethyl)-1H-benzoimidazol-5-yl]-benzenesulfonamide] | 100 | 8.6 | 

Further lines, results first:

Row | inhibition at 0.5 µM [%] | IC50 [nM] | inhibition at 0.2 µM (test concentration of 0.2 μm, read-out: percent inhibition (symbol b)) [%] | SMILES
23 | 43 |  |  | NS(=O)(=O)c1ccccc1-c1ccc2[nH]c(COc3ccccc3F)nc2c1 [Cpd 3, 2-[2-(2-fluoro-phenoxymethyl)-1H-benzoimidazol-5-yl]-benzenesulfonamide]
24 | 87 | 102 |  | NS(=O)(=O)c1ccccc1-c1ccc2[nH]c(COc3cccc(Cl)c3)nc2c1 [Cpd 6, 2-[2-(3-chloro-phenoxymethyl)-1H-benzoimidazol-5-yl]-benzenesulfonamide]
25 |  | 13 |  | NS(=O)(=O)c1ccccc1-c1ccc2[nH]c(COc3ccc(Cl)cc3)nc2c1 [Cpd 7, 2-[2-(4-chloro-phenoxymethyl)-1H-benzoimidazol-5-yl]-benzenesulfonamide]
26 |  | 38 |  | NS(=O)(=O)c1ccccc1-c1ccc2[nH]c(COc3ccc(F)c(Cl)c3)nc2c1 [Cpd 11, 2-[2-(3-chloro-4-fluoro-phenoxymethyl)-1H-benzoimidazol-5-yl]-benzenesulfonamide]
27 | 100 | 8 |  | CNS(=O)(=O)c1ccccc1-c1ccc2[nH]c(COc3ccc(S(C)(=O)=O)cc3)nc2c1 [Cpd 19, 2-[2-(4-methanesulfonyl-phenoxymethyl)-1H-benzoimidazol-5-yl]-N-methyl-benzenesulfonamide]
28 | 87 | 177 |  | NS(=O)(=O)c1ccccc1-c1ccc2[nH]c(COc3ccccc3)nc2c1 [Cpd 26, 2-(2-phenoxymethyl-1H-benzoimidazol-5-yl)-benzenesulfonamide]
29 | 98 | 12 |  | Cc1ccc(OCc2nc3cc(-c4ccccc4S(N)(=O)=O)ccc3[nH]2)cc1 [Cpd 27, 2-(2-p-tolyloxymethyl-1H-benzoimidazol-5-yl)-benzenesulfonamide]
30 | 98 | 8.9 |  | CC(C)c1ccc(OCc2nc3cc(-c4ccccc4S(N)(=O)=O)ccc3[nH]2)cc1 [Cpd 28, 2-[2-(4-isopropyl-phenoxymethyl)-1H-benzoimidazol-5-yl]-benzenesulfonamide]
31 | 99 | 13 |  | NS(=O)(=O)c1ccccc1-c1ccc2[nH]c(COc3ccc(Cl)c(C(F)(F)F)c3)nc2c1 [Cpd 30, 2-[2-(4-chloro-3-trifluoromethyl-phenoxymethyl)-1H-benzoimidazol-5-yl]-benzenesulfonamide]
32 |  | 6 | 100 | CC(C)(C)c1ccc(OCc2nc3cc(-c4ccccc4S(N)(=O)=O)ccc3[nH]2)cc1 [Cpd 32, 2-[2-(4-tert-butyl-phenoxymethyl)-1H-benzoimidazol-5-yl]-benzenesulfonamide]
33 | 100 | 44 |  | CCOc1ccc(OCc2nc3cc(-c4ccccc4S(N)(=O)=O)ccc3[nH]2)cc1 [Cpd 33, 2-[2-(4-ethoxy-phenoxymethyl)-1H-benzoimidazol-5-yl]-benzenesulfonamide]
34 | 100 | 13 |  | NS(=O)(=O)c1ccccc1-c1ccc2[nH]c(COc3ccc(SC(F)(F)F)cc3)nc2c1 [Cpd 34, 2-[2-(4-trifluoromethylsulfanyl-phenoxymethyl)-1H-benzoimidazol-5-yl]-benzenesulfonamide]
35 | 5 |  |  | NS(=O)(=O)c1ccccc1-c1ccc2[nH]c(COc3ccc(C(F)(F)F)cn3)nc2c1 [Cpd 39, 2-[2-(5-trifluoromethyl-pyridin-2-yloxymethyl)-1H-benzoimidazol-5-yl]-benzenesulfonamide]
